In one assay the test system is UM-UC-9 engineered cells. The experiment in a line: Cell proliferation / short-term viability assay, CellTiter-Glo 144 h. In kind it is cell-based, human. The conditions noted are these: read-out: CTGlo 144 h UMUC9.5, G150. The gist of the method:
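UM-UC-9 engineered assay-ready cells seeded at 500 cells/well in high-glucose DMEM/10% FBS, treated from dose-response plates, grown at 37° C, 5% CO2. CellTiter-Glo 2.0 luminescence read on day 7, with a day-0 pretreatment plate as T0 reference and DMSO wells as negative control.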

The next assay has as its target T1, His6-TEV-PPARγ-(234-505) (Homo sapiens, UniProt P37231).
T1 construct: The His6-TEV-PPARγ-(234-505) protein for assay was expressed and purified; TEV cleavage site (N); made in house
T1 sequence (P37231 234-505): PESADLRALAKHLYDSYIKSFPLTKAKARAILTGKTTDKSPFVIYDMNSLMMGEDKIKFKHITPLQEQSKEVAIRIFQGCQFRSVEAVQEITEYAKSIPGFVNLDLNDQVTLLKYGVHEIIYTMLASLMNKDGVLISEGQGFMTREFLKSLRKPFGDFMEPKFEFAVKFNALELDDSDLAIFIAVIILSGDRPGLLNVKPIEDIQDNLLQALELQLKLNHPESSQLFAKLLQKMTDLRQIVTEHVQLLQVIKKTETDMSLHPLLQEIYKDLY
Briefly: TR-FRET Assay to Measure Co-R Peptide Recruitment to PPARγ. Type of assay: biochemical. The conditions noted are these: Co-R peptide (SMRT-ID2) recruitment; top final concentration 20 μM; read-out: TR-FRET i-Ag; AC50. The method, boiled down:
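His-tagged PPARγ (or controls) was preincubated with compound for 20 minutes at room temperature, then 5 nM anti-His terbium antibody and 200 nM FITC-labeled SMRT-ID2 corepressor peptide (final) were added for a further hour. TR-FRET signal was normalized to percent response using 500 nM T0070907 and DMSO controls.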

Structures are written as SMILES. Read-outs that look alike come from different tables or passages of the source. Bounds are passed on as bounds.

`COc1cc(-c2cc(C(=O)N3CC[C@@H](C(=O)N[C@H]4CC[C@@](OCCN(C)C)(C(F)(F)F)CC4)CC34CC4)n[nH]2)c(F)cn1` [Example 329-B, (R)—N-((1r,4R)-4-(2-(dimethylamino)ethoxy)-4-(trifluoromethyl)cyclohexyl)-4-(5-(5-fluoro-2-methoxypyridin-4-yl)-1H-pyrazole-3-carbonyl)-4-azaspiro[2.5]octane-7-carboxamide]: the IC50 with UM-UC-9 engineered cells (Homo sapiens, UM-UC-9, 144 h) stood at 1650 nM. For the same compound, the AC50 at His6-TEV-PPARγ-(234-505) is 452 nM.

With `COc1cc(-c2cc(C(=O)N3CCC(C(=O)NCc4cccc(Cl)c4)CC3(C)C)n[nH]2)c(Cl)cn1` (racemic) [Example 255], the IC50 in the assay with UM-UC-9 engineered cells (Homo sapiens, UM-UC-9, 144 h) came to 151 nM. In addition, the AC50 at His6-TEV-PPARγ-(234-505) was 63.3 nM.

`COc1cc(-c2cc(C(=O)N3CC[C@@H](C(=O)N[C@H]4CCN(CC(C)(C)O)C4)CC34CC4)[nH]n2)c(F)cn1` [Example 345-B, (R)-4-(3-(5-Fluoro-2-methoxypyridin-4-yl)-1H-pyrazole-5-carbonyl)-N—((S)-1-(2-hydroxy-2-methylpropyl)pyrrolidin-3-yl)-4-azaspiro[2.5]octane-7-carboxamide]: in the assay with UM-UC-9 engineered cells (Homo sapiens, UM-UC-9, 144 h), the IC50 is > 10000 nM. For the same compound, the AC50 at His6-TEV-PPARγ-(234-505) worked out at 7250 nM.

As for `COc1cc(-c2cc(C(=O)N3CCC(C(=O)NC4CC(N5CCC(F)(F)C5)C4(C)C)CC34CC4)n[nH]2)c(F)cn1` (single isomer, unassigned) [Example 355-B], the IC50 in the assay with UM-UC-9 engineered cells came out at 3.3 nM. Also, the AC50 on His6-TEV-PPARγ-(234-505) turned out to be 9.4 nM.

In the case of `COc1cc(-c2cc(C(=O)N3CCC(C(=O)NCC4CCc5nccn5C4)CC34CC4)n[nH]2)c(F)cn1` (mixture of isomers) [Example 356, (S)-4-(5-(5-fluoro-2-methoxypyridin-4-yl)-1H-pyrazole-3-carbonyl)-N—(((S)-5,6,7,8-tetrahydroimidazo[1,2-a]pyridin-6-yl)methyl)-4-azaspiro[2.5]octane-7-carboxamide and (S)-4-(5-(5-fluoro-2-methoxypyridin-4-yl)-1H-pyrazole-3-carbonyl)-N—(((R)-5,6,7,8-tetrahydroimidazo[1,2-a]pyridin-6-yl)methyl)-4-azaspiro[2.5]octane-7-carboxamide], the IC50 in the assay on UM-UC-9 engineered cells stood at 4790 nM. Further, the AC50 at His6-TEV-PPARγ-(234-505) stood at 113 nM.

In the case of `COc1cc(-c2cc(C(=O)N3CC[C@H](C(=O)Nc4cnn5cc(C(C)=O)ccc45)CC34CC4)n[nH]2)c(F)cn1` [Example 494, (S)—N-(6-acetylpyrazolo[1,5-a]pyridin-3-yl)-4-(5-(5-fluoro-2-methoxypyridin-4-yl)-1H-pyrazole-3-carbonyl)-4-azaspiro[2.5]octane-7-carboxamide], the IC50 in the assay with UM-UC-9 engineered cells (Homo sapiens, UM-UC-9, 144 h) was found to be 80.8 nM. In addition, the AC50 at His6-TEV-PPARγ-(234-505) worked out at 6.7 nM.

For `COc1cc(-c2cc(C(=O)N3CC[C@H](C(=O)N[C@H]4CC[C@@](O)(C(F)(F)F)CC4)CC34CC4)n[nH]2)c(Cl)cn1` (single isomer, unassigned) [Example 286-B], the IC50 in the assay on UM-UC-9 engineered cells (Homo sapiens, UM-UC-9, 144 h) amounted to 1.5 nM. At His6-TEV-PPARγ-(234-505), the AC50 came to 2.2 nM.

As for `COc1cc(-c2cc(C(=O)N3CC[C@H](C(=O)NCc4ncc(C(F)(F)F)cn4)CC34CC4)n[nH]2)c(F)cn1` [Example 457, (S)-4-(5-(5-fluoro-2-methoxypyridin-4-yl)-1H-pyrazole-3-carbonyl)-N-((5-(trifluoromethyl)pyrimidin-2-yl)methyl)-4-azaspiro[2.5]octane-7-carboxamide], in the assay with UM-UC-9 engineered cells (Homo sapiens, UM-UC-9, 144 h), the IC50 was 414 nM. The AC50 at His6-TEV-PPARγ-(234-505) is 13.4 nM.

For `COc1cnc(CNC(=O)[C@H]2CCN(C(=O)c3cc(-c4cc(OC)ncc4F)[nH]n3)C3(CC3)C2)c(Cl)c1` [Example 402, (S)—N((3-chloro-5-methoxypyridin-2-yl)methyl)-4-(5-(5-fluoro-2-methoxypyridin-4-yl)-1H-pyrazole-3-carbonyl)-4-azaspiro[2.5]octane-7-carboxamide], in the assay on UM-UC-9 engineered cells (Homo sapiens, UM-UC-9, 144 h), the IC50 worked out at 2.9 nM. Besides, at His6-TEV-PPARγ-(234-505), the AC50 amounted to 10.8 nM.

For the compound `COc1cc(-c2cc(C(=O)N3CCC(C(=O)Nc4cccc5[nH]ccc45)CC3)n[nH]2)c(Cl)cn1` [Example 261, 1-(5-(5-chloro-2-methoxypyridin-4-yl)-1H-pyrazole-3-carbonyl)-N-(1H-indol-4-yl)piperidine-4-carboxamide], the IC50 in the assay on UM-UC-9 engineered cells (Homo sapiens, UM-UC-9, 144 h) stood at 490 nM. Further, on His6-TEV-PPARγ-(234-505), the AC50 is 78.4 nM.

Consider `COc1cc(-c2cc(C(=O)N3CCC(C(=O)NC4CCC(O)(C(F)(F)F)CC4)CC3(C)C)n[nH]2)c(F)cn1` (single isomer, unassigned) [Example 407-A], for which the IC50 in the assay with UM-UC-9 engineered cells was 14 nM. Further, on His6-TEV-PPARγ-(234-505), the AC50 is 16 nM.

As for `COc1cc(-c2cc(C(=O)N3CC[C@H](C(=O)NC4CCC5CCCN5C4)CC34CC4)n[nH]2)c(F)cn1` (single isomer, unassigned) [Example 376-C], the IC50 in the assay with UM-UC-9 engineered cells was 23.6 nM. Moreover, the AC50 on His6-TEV-PPARγ-(234-505) stood at 19.2 nM.

Take `COc1cc(-c2cc(C(=O)N3CC[C@H](C(=O)NC4CCC(O)(C(F)(F)F)C(O)C4)CC34CC4)n[nH]2)c(F)cn1` (single isomer, unassigned) [Example 474-E]: in the assay on UM-UC-9 engineered cells, the IC50 was determined as 1930 nM. In addition, the AC50 at His6-TEV-PPARγ-(234-505) stood at 1500 nM.

As for `O=C(NC1CCC(O)(C(F)(F)F)CC1)C1CCN(C(=O)c2cc(-c3cc(Cl)ncc3F)[nH]n2)C2(CC2)C1` (single isomer, unassigned) [Example 529-B], the IC50 in the assay on UM-UC-9 engineered cells is 9.2 nM. Also, the AC50 on His6-TEV-PPARγ-(234-505) came out at 1.4 nM.

On to `O=C(NCc1ncc(F)cc1Cl)C1CCN(C(=O)c2cc(-c3cc(C4CC4)ncc3F)[nH]n2)C2(CC2)C1` (racemic) [Example 480, (S)—N-((3-chloro-5-fluoropyridin-2-yl)methyl)-4-(5-(2-cyclopropyl-5-fluoropyridin-4-yl)-1H-pyrazole-3-carbonyl)-4-azaspiro[2.5]octane-7-carboxamide and (R)—N-((3-chloro-5-fluoropyridin-2-yl)methyl)-4-(5-(2-cyclopropyl-5-fluoropyridin-4-yl)-1H-pyrazole-3-carbonyl)-4-azaspiro[2.5]octane-7-carboxamide], for which the IC50 in the assay on UM-UC-9 engineered cells was 371 nM. On His6-TEV-PPARγ-(234-505), the AC50 worked out at 17.6 nM.

Turning to `COc1cc(-c2cc(C(=O)N3CC[C@H](C(=O)NC4CCN(c5cnc(C)nc5)C4)CC34CC4)n[nH]2)c(F)cn1` (single isomer, unassigned) [Example 453-A], the IC50 with UM-UC-9 engineered cells turned out to be 14.7 nM. Further, at His6-TEV-PPARγ-(234-505), the AC50 was determined as 6 nM.

`CCO[C@]1(C(F)(F)F)CC[C@H](NC(=O)[C@@H]2CCN(C(=O)c3cc(-c4cc(C)ncn4)[nH]n3)C3(CC3)C2)CC1` (single isomer, unassigned) [Example 308-F]: in the assay on UM-UC-9 engineered cells (Homo sapiens, UM-UC-9, 144 h), the IC50 worked out at 192 nM. In addition, the AC50 on His6-TEV-PPARγ-(234-505) came out at 6360 nM.

For `COc1cc(-c2cc(C(=O)N3CCC(C(=O)NC4CCC(O)(C(F)(F)F)CC4)CC34CC4)n[nH]2)ncn1` (single isomer, unassigned) [Example 338-B], in the assay on UM-UC-9 engineered cells, the IC50 turned out to be 1320 nM. In addition, the AC50 on His6-TEV-PPARγ-(234-505) was determined as 723 nM.

Turning to `CCc1cc(-c2cc(C(=O)N3CCC(C(=O)NCc4ncc(F)cc4Cl)CC34CC4)n[nH]2)c(F)cn1` (racemic) [Example 483, (S)—N-((3-chloro-5-fluoropyridin-2-yl)methyl)-4-(5-(2-ethyl-5-fluoropyridin-4-yl)-1H-pyrazole-3-carbonyl)-4-azaspiro[2.5]octane-7-carboxamide and (R)—N-((3-chloro-5-fluoropyridin-2-yl)methyl)-4-(5-(2-ethyl-5-fluoropyridin-4-yl)-1H-pyrazole-3-carbonyl)-4-azaspiro[2.5]octane-7-carboxamide], in the assay with UM-UC-9 engineered cells, the IC50 was 44.5 nM. Further, the AC50 on His6-TEV-PPARγ-(234-505) came to 6.2 nM.

As for `COc1cc(-c2cc(C(=O)N3CCC(C(=O)NCc4cccc5[nH]ncc45)CC3)n[nH]2)c(Cl)cn1` [Example 192, N-((1H-indazol-4-yl)methyl)-1-(5-(5-chloro-2-methoxypyridin-4-yl)-1H-pyrazole-3-carbonyl)piperidine-4-carboxamide], the IC50 with UM-UC-9 engineered cells (Homo sapiens, UM-UC-9, 144 h) stood at 375 nM. In addition, the AC50 on His6-TEV-PPARγ-(234-505) amounted to 83.3 nM.

For `COc1cc(-c2cc(C(=O)N3CC[C@H](C(=O)NCc4nc(C)oc4C(F)(F)F)CC34CC4)n[nH]2)c(F)cn1` [Example 394, (S)-4-(5-(5-fluoro-2-methoxypyridin-4-yl)-1H-pyrazole-3-carbonyl)-N-((2-methyl-5-(trifluoromethyl)oxazol-4-yl)methyl)-4-azaspiro[2.5]octane-7-carboxamide], the IC50 in the assay with UM-UC-9 engineered cells (Homo sapiens, UM-UC-9, 144 h) was found to be 24.5 nM. Moreover, at His6-TEV-PPARγ-(234-505), the AC50 was determined as 8.7 nM.

On to `COc1cc(-c2cc(C(=O)N3[C@@H]4CC[C@H]3C[C@H](C(=O)NCc3ccc5c(c3)c(F)nn5C)C4)n[nH]2)c(F)cn1` [Example 277, (1R,3s,5S)—N-((3-fluoro-1-methyl-1H-indazol-5-yl)methyl)-8-(5-(5-fluoro-2-methoxypyridin-4-yl)-1H-pyrazole-3-carbonyl)-8-azabicyclo[3.2.1]octane-3-carboxamide], for which the IC50 in the assay with UM-UC-9 engineered cells (Homo sapiens, UM-UC-9, 144 h) was found to be 29 nM. The AC50 at His6-TEV-PPARγ-(234-505) amounted to 3.3 nM.
